Test results from the OligoGym collection.
Values joined by “and” are separate entries in the source; they are usually repeats but may differ in a detail not shown here. Equal entries are not always repeated. After the bases stand the sugars from the 5' end (letter, count) and the backbone: PS all phosphorothioate, else s phosphorothioate and o phosphodiester by linkage. Methylation of C is not given here. e = 2'-O-(2-methoxyethyl) (MOE); k = constrained ethyl (cEt); d = 2'-deoxy (DNA)

Target: IRF4
Conditions: ASO

“GCATTTTATCATCCGA (sugars k3 d9 k3 e1, PS)” showed a target mRNA inhibition (MM.1R, 0.074 µM) of 16%, a target mRNA inhibition (MM.1R, 0.222 µM) of 32% and a target mRNA inhibition (MM.1R, 0.666 µM) of 51%. The target mRNA inhibition (MM.1R, 1 µM) was 62% and the target mRNA inhibition (MM.1R, 2 µM) was 77%.
GATGCAGCTGGCCACA (sugars k3 d10 k3, PS) was tested, and the target mRNA inhibition (SK-MEL-28, 4 µM) was 73%.
In the case of “TTTATGTTAGCCAATT (sugars kkddddddddddkeke, PS)”, the target mRNA inhibition (MM.1R, 1 µM) is reported as 11% and -5%.
With GGGTATTTATAACCGG (sugars k3 d10 k3, PS) the target mRNA inhibition (MM.1R, 0.0625 µM) was -16% and 5% and 1%, the target mRNA inhibition (MM.1R, 0.074 µM) was -4% and the target mRNA inhibition (MM.1R, 0.222 µM) was -19%. For the same sequence, the target mRNA inhibition (MM.1R, 0.666 µM) was -4%, the target mRNA inhibition (MM.1R, 1 µM) was 1% and 7% and 26% and the target mRNA inhibition (MM.1R, 2 µM) was 9%. For the same sequence, the target mRNA inhibition (MM.1R, 4 µM) was 12% and 24% and 34% and the target mRNA inhibition (SK-MEL-28, 4 µM) was 59%.
Sequence ACATACCTACAAGCAG (sugars k3 d10 k3, PS) has a target mRNA inhibition (SK-MEL-28, 4 µM) of 45%.
AAGATGACTCCATGAG (sugars k3 d10 k3, PS) was tested, and the target mRNA inhibition (SK-MEL-28, 4 µM) was 64%.
“GATGTGATAGCTGAGC (sugars kkdddddddddkekek, PS)” was tested, and the target mRNA inhibition (MM.1R, 1 µM) was 31%.
Sequence CATTCTAACAGATAAC (sugars k3 d10 k3, PS) has a target mRNA inhibition (SK-MEL-28, 4 µM) of -2%.
Work on CAAACACTAATACCTA (sugars k3 d10 k3, PS) yielded a target mRNA inhibition (SK-MEL-28, 4 µM) of 31%.
With GACTGACAGCCGAAGC (sugars k3 d10 k3, PS) the target mRNA inhibition (MM.1R, 1 µM) was 27%.
Work on GCCCAAGCCTTGAAGA (sugars k3 d10 k3, PS) yielded a target mRNA inhibition (SK-MEL-28, 4 µM) of 15%.
Sequence CTACCTTTTTTGGCTC (sugars k3 d10 k3, PS) has a target mRNA inhibition (SK-MEL-28, 4 µM) of 17%.
For CTTAGGCACATCAATG (sugars k3 d10 k3, PS), the target mRNA inhibition (MM.1R, 1 µM) was 8%.
ACCTCAGTTTGTGAAG (sugars k3 d10 k3, PS) showed a target mRNA inhibition (SK-MEL-28, 4 µM) of 39%.
Work on CCCCAAAGAGAGTGGG (sugars k3 d10 k3, PS) yielded a target mRNA inhibition (SK-MEL-28, 4 µM) of -11%.
GCTCATCCCGTCCAGC (sugars k3 d10 k3, PS) gave a target mRNA inhibition (SK-MEL-28, 4 µM) of 15%.
Sequence GTCCATGGGAGATCCG (sugars k3 d10 k3, PS) has a target mRNA inhibition (SK-MEL-28, 4 µM) of 52%.
Sequence “ACAGTGACTTGCATCC (sugars kkdddddddddkdkdk, PS)” has a target mRNA inhibition (MM.1R, 1 µM) of 18%.
TGCGAGTACCCAAGAC (sugars k3 d10 k3, PS) was tested, and the target mRNA inhibition (SK-MEL-28, 4 µM) was 59%.
AGGTAAGGGCCCCGTG (sugars k3 d10 k3, PS) was tested, and the target mRNA inhibition (SK-MEL-28, 4 µM) was 47%.
Sequence TGCAAAATAGTCACTC (sugars k3 d10 k3, PS) has a target mRNA inhibition (SK-MEL-28, 4 µM) of 48%.
“TGTGATAGCTGAGCTG (sugars kkdddddddddkekek, PS)” was tested, and the target mRNA inhibition (MM.1R, 1 µM) was 17%.
For TAGCAGGGCACGCTCT (sugars k3 d10 k3, PS), the target mRNA inhibition (SK-MEL-28, 4 µM) was 31%.
TAGATTGTAGGACAGA (sugars k3 d10 k3, PS) was tested, and the target mRNA inhibition (SK-MEL-28, 4 µM) was 28%.
CAATCTTAACCTGGAG (sugars k3 d10 k3, PS) showed a target mRNA inhibition (MM.1R, 1 µM) of 40%.
Sequence AGTCGCGCAAGTCTAC (sugars k3 d10 k3, PS) has a target mRNA inhibition (MM.1R, 1 µM) of 0%.
Sequence AGACGAAAACAGCCGC (sugars k3 d10 k3, PS) has a target mRNA inhibition (SK-MEL-28, 4 µM) of 25%.
ATAGTAAATATCCTGT (sugars k3 d10 k3, PS) was tested, and the target mRNA inhibition (SK-MEL-28, 4 µM) was 36%.
CTATTAAACAGCACTC (sugars k3 d10 k3, PS) was tested, and the target mRNA inhibition (SK-MEL-28, 4 µM) was 18%.
TGGCTAGCAGAGGTTC (sugars k3 d10 k3, PS) was tested, and the target mRNA inhibition (SK-MEL-28, 0.185 µM) was 1%, the target mRNA inhibition (SK-MEL-28, 4 µM) was 56% and the target mRNA inhibition (SK-MEL-28, 5 µM) was 62%. The target mRNA inhibition (SK-MEL-28, 15 µM) was 85%.
GCCCAATACATATCCA (sugars k3 d10 k3, PS) gave a target mRNA inhibition (SK-MEL-28, 4 µM) of 58%.
Sequence “TGATAGCTGAGCTGAT (sugars kdddddddddkekeke, PS)” has a target mRNA inhibition (MM.1R, 1 µM) of 17%.
Work on GCATAGTGATGAGATA (sugars k3 d10 k3, PS) yielded a target mRNA inhibition (SK-MEL-28, 4 µM) of 59%.
CGCAGGAGCGCGGAGG (sugars k3 d10 k3, PS) showed a target mRNA inhibition (MM.1R, 1 µM) of -28%.
For ATGGAACCCCAAAATC (sugars k3 d10 k3, PS), the target mRNA inhibition (SK-MEL-28, 4 µM) was 24%.
GGGTGGTAGAATGTGA (sugars k3 d10 k3, PS) showed a target mRNA inhibition (MM.1R, 1 µM) of 33%.
In the case of GCGCATAGGTCCTTCA (sugars k3 d10 k3, PS), the target mRNA inhibition (SK-MEL-28, 4 µM) is reported as 63%.
Work on TCGCAGGCAGTTGTGC (sugars k3 d10 k3, PS) yielded a target mRNA inhibition (SK-MEL-28, 4 µM) of -20%.
For CCAGAGCACACAGACG (sugars k3 d10 k3, PS), the target mRNA inhibition (SK-MEL-28, 4 µM) was 36%.
In the case of TGAAACTGAGAGTGCG (sugars k3 d10 k3, PS), the target mRNA inhibition (SK-MEL-28, 4 µM) is reported as 19%.
For ACTGTTTTAAGAGGCG (sugars k3 d10 k3, PS), the target mRNA inhibition (SK-MEL-28, 4 µM) was 68% and 70%.
Sequence AAAGGCCAAATTGCAA (sugars k3 d10 k3, PS) has a target mRNA inhibition (SK-MEL-28, 4 µM) of 52%.
Sequence TTATTTGTGGCTCAAC (sugars k3 d10 k3, PS) has a target mRNA inhibition (SK-MEL-28, 4 µM) of 18%.
In the case of TGGCACCAAGGTCCAG (sugars k3 d10 k3, PS), the target mRNA inhibition (SK-MEL-28, 4 µM) is reported as 1%.
Sequence “AAGCATTTTATCATCC (sugars e1 k2 d9 k2 e2, PS)” has a target mRNA inhibition (MM.1R, 1 µM) of 14%.
With TGATATTAGAGACTGT (sugars k3 d10 k3, PS) the target mRNA inhibition (SK-MEL-28, 4 µM) was 60%.
TTATTAGACTGACAGC (sugars k3 d10 k3, PS) was tested, and the target mRNA inhibition (SK-MEL-28, 4 µM) was 37%.
For CGTAGTCCCTCCAGCT (sugars k3 d10 k3, PS), the target mRNA inhibition (MM.1R, 1 µM) was 27%.
ACGCAATCTTCTGCTG (sugars k3 d10 k3, PS) showed a target mRNA inhibition (SK-MEL-28, 4 µM) of 52%.
TCTCTCCAGTTTGTTG (sugars k3 d10 k3, PS) showed a target mRNA inhibition (SK-MEL-28, 4 µM) of 14%.
